Test results as given in patent US20220401469A1, “PROCESS FOR PREPARATION OF BIOLOGICALLY ACTIVE COPOLYMER” (RECCE PHARMACEUTICALS LTD, priority 2020, published 2022).
“And” between values parts separate entries of the source, which are not always exact repeats. Equal values may be shown once. Marks after values point to notes of the source that are not given here.

What was measured:
[1] = tested on: E. coli [ATCC 25922]; assay: Ascending Urinary Tract Infection Rat Model (kidneys, bladder); format: in vivo
[2] = tested on: Neisseria gonorrhoea (ATCC700825); settings: in vivo, 50 mg/kg
[3] = tested on: Neisseria gonorrhoea (ATCC700825); assay: Mouse vaginal infection model; settings: mice; Meropenem IV bolus 50 mg/kg for seven days; p<0.05
[4] = tested on: Staphylococcus aureus [ATCC 43300]; assay: Burn Wound Infection Model in rats; format: in vivo
[5] = tested on: Influenza A virus (H1N1) Strain: A/NWS/33; assay: Mouse influenza model (C57BL/6), body weights and lung viral titers; format: in vivo
[6] = Meropenem 30 mg/kg single dose i.v. bolus
[7] = Meropenem 30 mg/kg single dose i.v. bolus, individual animals
[8] = Meropenem single IV bolus 30 mg/kg, E1 50 and 500 mg/kg i.v. 24 h infusion

In the case of C[C@@H](O)[C@H]1C(=O)N2C(C(=O)O)=C(S[C@@H]3CN[C@H](C(=O)N(C)C)C3)[C@H](C)[C@H]12 [Meropenem], the “Mean Log10CFU/g Bladder change (wrt 4 h PI control: 6.54 Log10CFU/g Bladder)” value [1, 6] is reported as −1.11 Log10CFU/g, the “Mean Log10CFU/g kidney change (wrt 4 h PI control: 4.73 Log10CFU/g kidneys)” value [1, 6] is reported as −1.27 Log10CFU/g and the “Mean ± SD (Log10 CFU/g Bladder)” value [1, 6] is reported as 5.43 ± 0.36 Log10 CFU/g Bladder. For the same compound, the “Mean ± SD (Log10 CFU/g kidneys)” value [1, 6] was 3.46 ± 0.19 Log10 CFU/g kidneys, the “Log10 CFU/g Bladder” value [1, 7] was 5.04 Log10 CFU/g and 5.24 Log10 CFU/g and 5.91 Log10 CFU/g and 5.25 Log10 CFU/g and 5.71 Log10 CFU/g and the “Log 10 CFU/g Kidneys Left kidney” value [1, 7] was 3.46 Log 10 CFU/g (2×) and 3.61 Log 10 CFU/g and 3.41 Log 10 CFU/g and 3.37 Log 10 CFU/g. The “Log 10 CFU/g Kidneys Right kidney” value [1, 7] was 3.36 Log 10 CFU/g and 3.69 Log 10 CFU/g and 3.80 Log 10 CFU/g and 3.16 Log 10 CFU/g and 3.31 Log 10 CFU/g, the “antibacterial activity in kidneys compared to vehicle control” value [1, 8] was “significant bactericidal activity in kidneys” and the “antibacterial activity in the bladder compared to vehicle control” value [1, 8] was “significant bactericidal activity in the bladder”. The Clinical signs [2] was “N” and the “bactericidal activity in vaginal load compared to vehicle control” value [3] was “significant bactericidal activity in vaginal load”.
With Saframycin the “bacterial load on day 4 compared to day 1” value ([4]; E1, CE3 100 μl (19.15 mg/ml) topical 3 days, Saframycin 30 mg topical b.i.d 3 days) was “did not show significant efficacy on day 4 when compared to day 1”, the “% wound contraction on Day 4 PI (Mean ± SD)” value ([4]; E1, CE3 100 μl (19.15 mg/ml) topical 3 days, Safromycin 30 mg topical b.i.d 3 days) was 2.48 ± 0.30% and the “wound reduction on day 4 compared to vehicle control” value ([4]; E1, CE3 100 μl (19.15 mg/ml) topical 3 days, Safromycin 30 mg topical b.i.d 3 days, p<0.05) was “significant reduction wound on day 4”. For the same compound, the “Bacterial Load on skin post treatment Day 1 PI” value ([4]; Mean ± SD, E1, CE3 100 μl (19.15 mg/ml) topical u.i.d 3 days, Safromycin 30 mg topical b.i.d 3 days, Day 1 PI) was 5.84 ± 0.35 Logic CFU/Swab and the “Bacterial Load on skin post treatment Day 4 PI” value ([4]; Mean ± SD, E1, CE3 100 μl (19.15 mg/ml) topical u.i.d 3 days, Safromycin 30 mg topical b.i.d 3 days, Day 4 PI) was 4.87 ± 0.63 Logic CFU/Swab.
With NC(=O)c1ncn([C@@H]2O[C@H](CO)[C@@H](O)[C@H]2O)n1 [Ribavirin] the “body weights compared to vehicle control on day 4” value ([5]; Ribavarin, E1 25, 50 and 100 mg/kg, CE3 100, 500 and 1000 mg/kg, p<0.05) was “significantly higher body weights”, the “viral growth rate and viral load in the lungs compared to vehicle control” value ([5]; Ribavirin 66 mg/kg IP, E1 25-100 mg/kg, CE3 100-1000 mg/kg iv bid) was “significantly reduced the viral growth rate and viral load in the lungs” and the “viral titres compared to vehicle control on day 4” value ([5]; Ribavirin, E1 25, 50 and 100 mg/kg, CE3 100, 500 and 1000 mg/kg, p<0.05) was “significantly lower viral titres”. For the same compound, the “Body weights Mean” value ([5]; mice infected with H1N1, Ribavarin 66 mg/kg i.p., Day 0) was 23.92 g, the “Body weights Mean” value ([5]; mice infected with H1N1, Ribavarin 66 mg/kg i.p., Day 1) was 23.50 g and the “Body weights Mean” value ([5]; mice infected with H1N1, Ribavarin 66 mg/kg i.p., Day 2) was 24.22 g. For the same compound, the “Body weights Mean (g)” value ([5]; mice infected with H1N1, Ribavarin 66 mg/kg i.p., Day 4) was 24.67* g, the “Body weights Mean” value ([5]; mice infected with H1N1, Ribavarin 66 mg/kg i.p., Day 6) was 24.70 g and the “body weight through the study” value ([5]; mice infected with H1N1, Ribavirin 66 mg/kg once daily IP) was “no significant decrease in body weight”.
